This is an account of results in US20070049592A1, “Bis-aryl urea compounds and methods of use” (priority 2005, published 2007).

Structures are written as SMILES. A value given as a limit tells only on which side of the number the result lay.

The test system of assay [1] is production of TNF by monocytes activated with bacterial lipopolysaccharide (LPS). In words: Lipopolysaccharide-activated monocyte TNF production assay. It is filed as cell-based. The settings on record: Homo sapiens, as a determination of p38 activity, read-out: IC50 values in the monocyte assay (LPS induced TNF release). Here is the method: Test compounds were evaluated in vitro for the ability to inhibit the production of TNF by monocytes activated with bacterial lipopolysaccharide (LPS). Fresh residual source leukocytes (a byproduct of plateletpheresis) were obtained from a local blood bank, and peripheral blood mononuclear cells (PBMCs) were isolated by density gradient centrifugation on Ficol-Paque Plus (Pharmacia). PBMCs were suspended at 2×10^6/ml in DMEM supplemented to contain 2% FCS, 10 mM, 0.3 mg/ml […], 100 U/ml penicillin G and […] streptomycin sulfate (complete media). Cells were plated into Falcon flat bottom, 96 well culture plates (200 μl/well) and cultured overnight at 37° C. and 6% CO2. Non-adherent cells were removed by washing with 200 μl/well of fresh medium. Wells containing adherent cells (˜70% monocytes) were replenished with 100 μl of fresh medium.
Test compounds were dissolved in […]. Compound stock solutions were prepared to an initial concentration of […]. Stocks were diluted initially to 20-200 μM in complete media. Nine two-fold serial dilutions of each compound were then prepared in complete medium.
One hundred microliters of each test compound dilution were added to microtiter wells containing adherent monocytes and 100 μl complete medium. Monocytes were cultured with test compounds for 60 min at which time 25 μl of complete medium containing 30 ng/ml lipopolysaccharide from E. coli K532 were added to each well. Cells were cultured an additional 4 hrs. Culture supernatants were then removed and TNF presence in the supernatants was quantified using an ELISA.
Flat bottom, 96 well Corning High Binding ELISA plates were coated overnight (4° C.) with 150 μL/well of 3 μg/ml murine anti-human TNF-α MAb (R&D Systems #MAB210). Wells were then blocked for 1 hr at room temperature with 200 μL/well of CaCl2-free ELISA buffer supplemented to contain 20 mg/ml BSA (standard ELISA buffer: […], 150 mM NaCl, 2 mM CaCl2, 0.15 mM thimerosal, pH 7.4). Plates were washed and replenished with 100 μl of test supernatants (diluted 1:3) or standards. Standards consisted of eleven 1.5-fold serial dilutions from a stock of 1 ng/ml recombinant human TNF (R&D Systems). Plates were incubated at room temperature for 1 hr on orbital shaker (300 rpm), washed and replenished with 100 μl/well of 0.5 μg/ml goat anti-human TNF-α (R&D systems #AB-210-NA) biotinylated at a 4:1 ratio. Plates were incubated for 40 min, washed and replenished with 100 μl/well of alkaline phosphatase-conjugated streptavidin (Jackson ImmunoResearch #016-050-084) at 0.02 μg/ml. Plates were incubated 30 min, washed and replenished with 200 μl/well of 1 mg/ml of p-nitrophenyl phosphate. After 30 min, plates were read at 405 nm on a Vmax plate reader.
Standard curve data were fit to a second order polynomial and unknown TNF-α concentrations determined from their OD by solving this equation for concentration. TNF concentrations were then plotted vs. test compound concentration using a second order polynomial. This equation was then used to calculate the concentration of test compounds causing a 50% reduction in TNF production.

Assay [2] deals with Human Umbilical Vein Endothelial cells. Put plainly: HUVEC proliferation assay (VEGF). It is filed as cell-based. The settings on record: VEGF-stimulated HUVEC proliferation. The procedure:
Human Umbilical Vein Endothelial cells are purchased from Clonetics, Inc., as cryopreserved cells harvested from a pool of donors. These cells, at passage 1, are thawed and expanded in EBM-2 complete medium, until passage 2 or 3. The cells are trypsinized, washed in DMEM+10% FBS+antibiotics, and spun at 1000 rpm for 10 min. Prior to centrifugation of the cells, a small amount is collected for a cell count. After centrifugation, the medium is discarded, and the cells are resuspended in the appropriate volume of DMEM+10% FBS+antibiotics to achieve a concentration of 3×10^5 cells/mL. Another cell count is performed to confirm the cell concentration. The cells are diluted to 3×10^4 cells/mL in DMEM+10% FBS+antibiotics, and 100 μL of cells are added to a 96-well plate. The cells are incubated at 37° C. for 22 h.
Prior to the completion of the incubation period, compound dilutions are prepared. Five-point, five-fold serial dilutions are prepared in DMSO, at concentrations 400-fold greater than the final concentrations desired. 2.5 μL of each compound dilution are diluted further in a total of 1 mL DMEM+10% FBS+antibiotics (400× dilution). Medium containing 0.25% DMSO is also prepared for the 0 μM compound sample. At the 22 h timepoint, the medium is removed from the cells, and 100 μL of each compound dilution is added. The cells are incubated at 37° C. for 2-3 h.
During the compound pre-incubation period, the growth factors are diluted to the appropriate concentrations. Solutions of DMEM+10% FBS+antibiotics, containing either VEGF or bFGF at the following concentrations: 50, 10, 2, 0.4, 0.08, and 0 ng/mL are prepared. For the compound-treated cells, solutions of VEGF at 550 ng/mL or bFGF at 220 ng/mL for 50 ng/mL or 20 ng/mL final concentrations, respectively, are prepared since 10 μL of each will be added to the cells (110 μL final volume). At the appropriate time after adding the compounds, the growth factors are added. VEGF is added to one set of plates, while bFGF is added to another set of plates. For the growth factor control curves, the media on wells B4-G6 of plates 1 and 2 are replaced with media containing VEGF or bFGF at the varying concentrations (50-0 ng/mL). The cells are incubated at 37° C. for an additional 72 h.
At the completion of the 72 h incubation period, the medium is removed, and the cells are washed twice with PBS. After the second wash with PBS, the plates are tapped gently to remove excess PBS, and the cells are placed at −70° C. for at least 30 min. The cells are thawed and analyzed using the CyQuant fluorescent dye (Molecular Probes C-7026), following the manufacturer's recommendations. The plates are read on a Victor/Wallac 1420 workstation at 485 nm/530 nm (excitation/emission). Raw data is collected and analyzed using a 4-parameter fit equation in XLFit. IC50 values are then determined.

For the compound `CNc1cc(N(C)C(=O)Nc2cc(C(=O)Nc3cccc(C(F)(F)F)c3)ccc2C)ncn1` [Example 16, ′4-methyl-3-(((methyl(6-(methylamino)-4-pyrimidinyl)amino)carbonyl)amino)-N-(3-(trifluoromethyl)phenyl) benzamide], the 50% inhibitory concentration (IC50) in assay [1] was at most 5 µM; in assay [2], below 5 µM.
For `CNc1cc(N(C)C(=O)Nc2cc(C(=O)Nc3cccc(C(C)C)c3)ccc2C)ncn1` [Example 17, 4-methyl-N-(3-(1-methylethyl)phenyl)-3-(((methyl(6-(methylamino)-4-pyrimidinyl)amino)carbonyl)amino) benzamide] the same measures were at most 5 µM and below 5 µM.
For `CNc1cc(N(C)C(=O)Nc2cc(C(=O)Nc3cc(OC)cc(C(F)(F)F)c3)ccc2C)ncn1` [Example 18, 4-methyl-3-(((methyl(6-(methylamino)-4-pyrimidinyl)amino)carbonyl)amino)-N-(3-(methyloxy)-5-(trifluoromethyl)phenyl) benzamide] the same measures were at most 5 µM and below 5 µM.
For `CNc1cc(N(C)C(=O)Nc2cc(C(=O)Nc3cccc(C(F)(F)F)c3C)ccc2C)ncn1` [Example 20, 4-methyl-3-(((methyl(6-(methylamino)-4-pyrimidinyl)amino)carbonyl)amino)-N-(2-methyl-3-(trifluoromethyl)phenyl)benzamide] the same measures were at most 5 µM and below 5 µM.
Turning to `CNc1cc(N(C)C(=O)Nc2cc(C(=O)Nc3ccc4ccccc4c3)ccc2C)ncn1` [Example 23, 4-methyl-3-(((methyl(6-(methylamino)-4-pyrimidinyl)amino)carbonyl)amino)-N-(2-naphthalenyl) benzamide], the half-maximal inhibitory concentration (IC50) is at most 5 µM in assay [1] and below 5 µM in assay [2].
For `CNc1cc(N(C)C(=O)Nc2cc(C(=O)Nc3cccc(C(F)(F)F)c3F)ccc2C)ncn1` [Example 24, N-(2-fluoro-3-(trifluoromethyl)phenyl)-4-methyl-3-((methyl(6-(methylamino)-4-pyrimidinyl)amino)carbonylamino)benzamide] the same measures were at most 5 µM and below 5 µM.
Compound `CNc1ncnc(N(C)C(=O)Nc2cc(C(=O)Nc3cccc(-c4ccccc4)c3)ccc2C)n1` [Example 39, N-(1,1′-biphenyl-3-yl)-4-methyl-3-(((methyl(4-(methylamino)-1,3,5-triazin-2-yl)amino)carbonyl)amino)benzamide] showed an IC50 in assay [2] below 5 µM.
The same measure, in the same setting: under `CNc1cc(N(C)C(=O)Nc2cc(C(=O)Nc3ccc(Cl)cc3)ccc2C)ncn1` [Example 40, N-(4-chlorophenyl)-4-methyl-3-(((methyl(6-(methylamino)-4-pyrimidinyl)amino)carbonyl)amino)benzamide] stands below 5 µM; under `CNc1cc(N(C)C(=O)Nc2cc(C(=O)Nc3ccccc3)ccc2C)ncn1` [Example 41, 4-methyl-3-(((methyl(6-(methylamino)-4-pyrimidinyl)amino)carbonyl)amino)-N-phenylbenzamide], below 5 µM; under `CCCCNC(=O)c1ccc(C)c(NC(=O)N(C)c2cc(NC)ncn2)c1` [Example 42, N-butyl-4-methyl-3-(((methyl(6-(methylamino)-4-pyrimidinyl)amino)carbonyl)amino)benzamide], below 5 µM.
Same read-out and setting: under `CNc1cc(N(C)C(=O)Nc2cc(C(=O)Nc3cc(C4CCCCC4)ccc3OC)ccc2C)ncn1` [Example 43, N-(5-cyclohexyl-2-(methyloxy)phenyl)-4-methyl-3-(((methyl(6-(methylamino)-4-pyrimidinyl)amino)carbonyl)amino)benzamide] stands below 5 µM; under `CNc1ncnc(N(C)C(=O)Nc2cc(C(=O)Nc3ccccc3)ccc2C)n1` [Example 44, 4-methyl-3-(((methyl(4-(methylamino)-1,3,5-triazon-2-yl)amino)carbonyl)amino)-N-phenylbenzamide], below 5 µM; under `CNc1cc(N(C)C(=O)Nc2cc(C(=O)NCc3ccccc3)ccc2C)ncn1` [Example 45, 4-methyl-3-(((methyl(6-(methylamino)-4-pyrimidinyl)amino)carbonyl)amino)-N-(phenylmethyl) benzamide], below 5 µM.
The same measure, in the same setting: with `COc1ccc(C2CCCCC2)cc1NC(=O)c1ccc(C)c(NC(=O)N(CCCN2CCOCC2)c2ccncn2)c1` [Example 46, N-(5-cyclohexyl-2-(methyloxy)phenyl)-4-methyl-3-((((3-(4-morpholinyl)propyl)(4-pyrimidinyl)amino)carbonyl)amino)benzamide] the figure was below 5 µM; with `CNc1ncnc(N(C)C(=O)Nc2cc(C(=O)Nc3ccc(Cl)cc3)ccc2C)n1` [Example 47, N-(4-chlorophenyl)-4-methyl-3-(((methyl(4-(methylamino)-1,3,5-triazin-2-yl)amino)carbonyl)amino) benzamide], below 5 µM; with `CCCCNC(=O)c1ccc(C)c(NC(=O)N(C)c2ncnc(NC)n2)c1` [Example 48, N-butyl-4-methyl-3-(((methyl(4-(methylamino)-1,3,5-triazin-2-yl)amino)carbonyl)amino)benzamide], below 5 µM.
Compound `CNc1ncnc(N(C)C(=O)Nc2cc(C(=O)NCc3ccccc3)ccc2C)n1` [Example 49, 4-methyl-3-(((methyl(4-(methylamino)-1,3,5-triazin-2-yl)amino)carbonyl)amino)-N-(phenylmethyl) benzamide] gave an IC50 in assay [2] below 5 µM.
Still for that read-out and setting: with `CNc1nccc(N(CCCN2CCOCC2)C(=O)Nc2cc(C(=O)Nc3cc(C4CCCCC4)ccc3OC)ccc2C)n1` [Example 50, N-(5-cyclohexyl-2-(methyloxy)phenyl)-4-methyl-3-((((2-(methylamino)-4-pyrimidinyl)(3-(4-morpholinyl)propyl)amino)carbonyl)amino) benzamide] the figure was below 5 µM; with `CNC(=O)c1cc(N(C)C(=O)Nc2cc(C(=O)N3CCCc4ccc(C(F)(F)F)cc43)ccc2C)ccn1` [Example 71, N-methyl-4-(methyl(((2-methyl-5-((7-(trifluoromethyl)-3,4-dihydro-1(2H)-quinolinyl)carbonyl)phenyl)amino)carbonyl)amino)-2-pyridinecarboxamide], below 5 µM.
